Test results as given in patent publication US20250161340A1, “COMPOSITION FOR PREVENTING, ALLEVIATING OR TREATING DRY EYE SYNDROME OR MEIBOMIAN GLAND DYSFUNCTION” (SEOUL NATIONAL UNIVERSITY HOSPITAL, priority 2022, published 2025).

How the values were obtained:
[1] = tested on: Sjögren's syndrome-related inflammatory dry eye syndrome mouse models (NOD.B10.H2^b mice); experiment: Sjögren's syndrome-related inflammatory dry eye syndrome mouse model: corneal epithelial defects and tear secretion; assay type: in vivo; settings: for corneal epithelial defects: vs PBS or 5 μg/μL
Description: Two types of dry eye syndrome mouse models were used to examine whether 1,5DQ instillation is effective for dry eye syndrome. The first mouse model is a desiccating stress model, and BALB/c mice were reared in a dry environment (humidity: 20 to 30%) while administering a drug that suppresses tear secretion (scopolamine hydrobromide 0.5 mg/0.2 mL) intraperitoneally three times a day. The second mouse model is a Sjögren's syndrome-related inflammatory dry eye syndrome mouse model, and NOD.B10.H2^b mice were used. In the NOD.B10.H2^b mice, under normal environments, inflammation in the lacrimal glands and on the ocular surface spontaneously increases at about 11 weeks, leading to destruction of the lacrimal glands and ocular surface, decreased tear secretion, and severe dry eye syndrome accompanied by ocular surface epithelial defects progresses between 11 and 14 weeks.
(§1) In each of the two types of dry eye syndrome mouse models, the dry eye treatment effect of 1,5DQ instillation was investigated. The degree of corneal epithelial defects was measured by instilling a drop of the Lissamine green vital dye on the cornea and then observing the degree of stained corneal epithelial defects under a microscope and clinical scoring the same. The amount of tear secretion was evaluated by placing a thread soaked with a phenol red dye on the outer canthus of the mouse for 1 minute and measuring the length moistened by tears (length of the dyed area).
As described above, as Sjögren's syndrome-related inflammatory dry eye syndrome mice, NOD.B10.H2^b mice were used. 12-week-old mice were divided into two groups, and (i) 5 μL of 1,5DQ (50 μg/μL) or (ii) 5 μL of PBS was instilled into both eyes of each mouse twice a day for 5 days, and then the degree of corneal epithelial defects and the amount of tear secretion were evaluated.
Accordingly, the dry eye syndrome treatment effect according to the 1,5DQ treatment concentration was investigated. 12-week-old NOD.B10.H2^b mice (Sjögren's syndrome-related inflammatory dry eye syndrome mouse models) were divided into four groups, and (i) 5 μL of PBS, (ii) 5 μL of 1,5DQ (5 μg/μL), (iii) 5 μL of 1,5DQ (50 μg/μL), or (iv) 5 μL of 1,5DQ (500 μg/μL) was instilled into both eyes twice a day for 5 days, and then the degree of corneal epithelial defects and the amount of tear secretion were evaluated.

[2] = tested on: stearoyl-CoA desaturase (SCD) 1; experiment: SCD1 transcription in eyelids by real-time RT PCR; assay type: in vivo, mouse; settings: 12-week-old NOD.B10.H2^b mice; 5 μL of 1,5DQ (50 μg/μL) twice a day for 5 days; vs PBS
Description: (§2) 12-week-old NOD.B10.H2^b mice were divided into two groups, and (i) 5 μL of 1,5DQ (50 μg/μL) or (ii) 5 μL of PBS was instilled into both eyes of each mouse twice a day for 5 days. After removing the lower and upper eyelids of each mouse model, the expression level of meibomian gland differentiation factors in the eyelids was determined using real-time RT PCR. The meibomian glands are composed of sebocytes, and the transcription levels of stearoyl-CoA desaturase (SCD) 1 and SCD3, which are sebocyte-specific genes, were measured.

[3] = tested on: tumor necrosis factor-α (TNF-α); experiment: TNF-α transcripts in eyelids (meibomian glands) by real-time RT PCR, Sjögren's syndrome-related model; assay type: in vivo, mouse; settings: 12-week-old NOD.B10.H2^b mice; 5 μL of 1,5DQ (50 μg/μL) twice a day for 5 days; vs PBS
Description: (§3) 12-week-old NOD.B10.H2^b mice were divided into two groups, and (i) 5 μL of 1,5DQ (50 μg/μL) or (ii) 5 μL of PBS was instilled into both eyes of each mouse twice a day for 5 days. The degree of inflammation activation in the eyelids was evaluated by measuring the levels of transcripts of the inflammatory cytokines IL-6 and tumor necrosis factor-α (TNF-α), and another inflammatory factor, matrix metallopeptidase 9 (MMP-9), using real-time RT PCR.

[4] = tested on: dry eye syndrome mouse models undergoing desiccating stress (BALB/c mice); experiment: Desiccating stress dry eye syndrome mouse model: corneal epithelial defects (Lissamine green) and tear secretion (phenol red thread); assay type: in vivo; settings: 8-week-old BALB/c mice, vs PBS
Description: Two types of dry eye syndrome mouse models were used to examine whether 1,5DQ instillation is effective for dry eye syndrome. The first mouse model is a desiccating stress model, and BALB/c mice were reared in a dry environment (humidity: 20 to 30%) while administering a drug that suppresses tear secretion (scopolamine hydrobromide 0.5 mg/0.2 mL) intraperitoneally three times a day. The second mouse model is a Sjögren's syndrome-related inflammatory dry eye syndrome mouse model, and NOD.B10.H2^b mice were used. […]
as §1
8-week-old BALB/c mice undergoing desiccating stress were divided into two groups, and (i) 5 μL of 1,5DQ (50 μg/μL) or (ii) 5 μL of PBS was instilled into both eyes of each mouse twice a day for 5 days, and then the degree of corneal epithelial defects and the amount of tear secretion were evaluated.

meibomian glands = experiment: Area of eyelid meibomian glands, Sjögren's syndrome-related model; assay type: in vivo, mouse; settings: 12-week-old NOD.B10.H2^b mice; 5 μL of 1,5DQ (50 μg/μL) twice a day for 5 days; vs PBS
Description: 12-week-old NOD.B10.H2^b mice were divided into two groups, and (i) 5 μL of 1,5DQ (50 μg/μL) or (ii) 5 μL of PBS was instilled into both eyes of each mouse twice a day for 5 days. The area of the meibomian glands was confirmed by removing an eyelid from the mouse model and then measuring the area of 3 mm at the center.

[5] = tested on: CD3-positive immune cells; experiment: CD3 immunostaining of lacrimal glands, Sjögren's syndrome-related model; assay type: in vivo, mouse; settings: 12-week-old NOD.B10.H2^b mice; 5 μL of 1,5DQ (50 μg/μL) twice a day for 5 days; vs PBS
Description: Sjögren's syndrome-related inflammatory dry eye syndrome mice, i.e., NOD.B10.H2^b mice, typically show increased infiltration of inflammatory cells into the lacrimal glands between 11 to 14 weeks old. 12-week-old NOD.B10.H2^b mice were divided into two groups, and (i) 5 μL of 1,5DQ (50 μg/μL) or (ii) 5 μL of PBS was instilled into both eyes of each mouse twice a day for 5 days, and then the level of inflammatory cell infiltration in the lacrimal glands was evaluated. In addition, the extraorbital and intraorbital lacrimal glands, which had been removed from each mouse and sectioned, were immunostained with CD3, T cells were observed using the stained CD3 under a microscope (FIGS. 4A and 4B) and counted, and then the level of immune cell infiltration in the lacrimal glands was quantified (FIG. 4C).

SCD3 = SCD3 transcription in eyelids by real-time RT PCR; assay type: in vivo, mouse; settings: 12-week-old NOD.B10.H2^b mice; 5 μL of 1,5DQ (50 μg/μL) twice a day for 5 days; vs PBS
Description: as §2

[6] = tested on: human corneal epithelial cells; experiment: MTT cell viability of corneal epithelial cells, normal or hyperosmotic environment; assay type: cell-based; settings: 24 hours
Description: (§4) Corneal epithelial cells primarily cultured from human corneal limbal cells were treated with 100 mM NaCl for exposure to a hyperosmotic environment, and treated with 0, 10, 25, 50, or 100 μg/mL of 1,5DQ for 24 hours, and then cell viability was evaluated through MTT assay.

[7] = tested on: human corneal epithelial cells; experiment: Apoptosis of corneal epithelial cells by annexin V/PI flow cytometry, hyperosmotic environment; assay type: cell-based; settings: hyperosmotic environment (100 mM NaCl), 24 hours
Description: as §4, with “the degree of apoptosis” for “then cell viability”, “measured by performing flow cytometry after annexin V (ANX) and propidium iodide (PI) staining.” for “evaluated through MTT assay.”

[8] = tested on: matrix metallopeptidase 9 (MMP-9); experiment: MMP-9 transcripts in eyelids (meibomian glands) by real-time RT PCR, Sjögren's syndrome-related model; assay type: in vivo, mouse; settings: 12-week-old NOD.B10.H2^b mice; 5 μL of 1,5DQ (50 μg/μL) twice a day for 5 days; vs PBS
Description: as §3

interleukin 1β (IL-1β) = experiment: IL-1β transcripts in lacrimal glands by real-time RT PCR, desiccating stress model; assay type: in vivo, mouse; settings: BALB/c mice, 5 μL of 1,5DQ (50 μg/μL) twice a day for 5 days, vs PBS
Description: Desiccating stress-induced 8-week-old BALB/c mice were divided into two groups, and (i) 5 μL of 1,5DQ (50 μg/μL) or (ii) 5 μL of PBS was instilled into both eyes of each mouse twice a day for 5 days. The lacrimal glands of a mouse were classified into an extraorbital lacrimal gland and an intraorbital lacrimal gland, and the degree of inflammatory activation in each lacrimal gland was evaluated by measuring the levels of transcripts of inflammatory cytokine interleukin 1β (IL-1β) using real-time RT PCR.

IL-6 = IL-6 transcripts in eyelids (meibomian glands) by real-time RT PCR, Sjögren's syndrome-related model; assay type: in vivo, mouse; settings: 12-week-old NOD.B10.H2^b mice; 5 μL of 1,5DQ (50 μg/μL) twice a day for 5 days; vs PBS
Description: as §3

[9] = 12-week-old NOD.B10.H2^b mice, 5 μL of 1,5DQ (50 μg/μL) instilled twice a day for 5 days, vs PBS (Example 1-2)

## 1,5-O-dicaffeoylquinic acid [1,5DQ]
[1]; [9]
  amount of tear secretion: significantly increased
  degree of corneal epithelial defects: significantly reduced
[1]; Example 4, NOD.B10.H2^b mice, 5, 50 or 500 μg/μL 1,5DQ, 5 μL twice a day for 5 days
  amount of tear secretion, dependence on concentration: increasing trend depending on concentration
[1]; Example 4, NOD.B10.H2^b mice, 5 μL of 1,5DQ 50 μg/μL twice a day for 5 days
  corneal epithelial defects: significantly reduced
[1]; Example 4, NOD.B10.H2^b mice, 5 μL of 1,5DQ 500 μg/μL twice a day for 5 days
  corneal epithelial defects: significantly reduced
[1]; Example 4, NOD.B10.H2^b mice, PBS, 5, 50 or 500 μg/μL 1,5DQ, 5 μL twice a day for 5 days
  amount of tear secretion, difference between the groups: no statistically significant difference
[2]
  expression of SCD1 in the eyelids: significantly increased
[3]
  TNF-α expression in the meibomian glands of the eyelids: significantly reduced
[4]; 5 μL of 1,5DQ (50 μg/μL) instilled in both eyes twice a day for 5 days
  degree of corneal epithelial defects: significantly reduced
[4]; 5 μL of 1,5DQ (50 μg/μL) instilled twice a day for 5 days
  amount of tear secretion: significantly increased
Meibomian glands
  area of the meibomian glands in the lower eyelid: significantly increased
[5]
  number of CD3-positive immune cells deposited in the lacrimal glands: significantly decreased
SCD3
  expression of SCD3 in the eyelids: significantly increased
[6]; hyperosmotic environment (100 mM NaCl), 10 μg/mL 1,5DQ
  cell viability (MTT): significantly increased
[6]; hyperosmotic environment (100 mM NaCl), 25 μg/mL 1,5DQ
  cell viability (MTT): significantly increased
[6]; hyperosmotic environment (100 mM NaCl), 50 μg/mL 1,5DQ
  cell viability (MTT): significantly increased
[6]; hyperosmotic environment (100 mM NaCl), 100 μg/mL 1,5DQ
  cell viability (MTT): significantly increased
[6]; normal corneal epithelial cells not treated with NaCl, 25 μg/mL 1,5DQ
  cell viability (MTT): significantly increased
[6]; normal corneal epithelial cells not treated with NaCl, 50 μg/mL 1,5DQ
  cell viability (MTT): significantly increased
[7]; 10 μg/mL 1,5DQ
  apoptosis level of the corneal epithelial cells: significantly reduced
[7]; 25 μg/mL 1,5DQ
  apoptosis level of the corneal epithelial cells: significantly reduced
[7]; 50 μg/mL 1,5DQ
  apoptosis level of the corneal epithelial cells: significantly reduced
[8]
  MMP-9 expression in the meibomian glands of the eyelids: significantly reduced
Interleukin 1β (IL-1β)
  interleukin 1β expression, extraorbital lacrimal gland: significant reduced
  interleukin 1β expression, intraorbital lacrimal gland: significant reduced
IL-6
  IL-6 expression in the meibomian glands of the eyelids: significantly reduced
